# Experiments:
# [1] = target: Serine/threonine-protein kinase Nek1 (Homo sapiens) (UniProt Q96PY6); conditions: Compound concentration 1000.0 nM
# [2] = target: Serine/threonine-protein kinase Sgk1 (Homo sapiens) (UniProt O00141); conditions: Compound concentration 1000.0 nM
# [3] = target: Receptor-interacting serine/threonine-protein kinase 4 (Homo sapiens) (UniProt P57078); conditions: Compound concentration 1000.0 nM
# [4] = target: Ribosomal protein S6 kinase alpha-5 (Homo sapiens) (UniProt O75582); conditions: Compound concentration 1000.0 nM
# [5] = target: Serine/threonine-protein kinase 33 (Homo sapiens) (UniProt Q9BYT3); conditions: Compound concentration 1000.0 nM
# [6] = target: Sigma intracellular receptor 2 (Homo sapiens, UniProt Q5BJF2); assay: GPCRScan assay: inhibition of Sigma 2; set-up: radioligand conc. used [nm] 5.0, parental cells HEKT
# Sequence of Sigma intracellular receptor 2 (Q5BJF2 whole entry): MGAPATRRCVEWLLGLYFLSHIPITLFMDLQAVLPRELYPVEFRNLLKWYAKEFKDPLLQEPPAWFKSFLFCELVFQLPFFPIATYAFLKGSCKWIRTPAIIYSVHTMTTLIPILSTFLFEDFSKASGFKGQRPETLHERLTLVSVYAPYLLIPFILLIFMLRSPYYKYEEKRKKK
# [7] = target: cGMP-dependent protein kinase 1 (Homo sapiens) (UniProt Q13976); conditions: Compound concentration 1000.0 nM
# [8] = target: Ephrin type-B receptor 1 (Homo sapiens) (UniProt P54762); conditions: Compound concentration 1000.0 nM
# [9] = target: Vascular endothelial growth factor receptor 1 (Homo sapiens) (UniProt P17948); conditions: Compound concentration 1000.0 nM
# [10] = target: Ribosomal protein S6 kinase alpha-6 (Homo sapiens) (UniProt Q9UK32); conditions: Compound concentration 1000.0 nM
# Sequence of Ribosomal protein S6 kinase alpha-6 (Homo sapiens) (Q9UK32 whole entry, canonical isoform): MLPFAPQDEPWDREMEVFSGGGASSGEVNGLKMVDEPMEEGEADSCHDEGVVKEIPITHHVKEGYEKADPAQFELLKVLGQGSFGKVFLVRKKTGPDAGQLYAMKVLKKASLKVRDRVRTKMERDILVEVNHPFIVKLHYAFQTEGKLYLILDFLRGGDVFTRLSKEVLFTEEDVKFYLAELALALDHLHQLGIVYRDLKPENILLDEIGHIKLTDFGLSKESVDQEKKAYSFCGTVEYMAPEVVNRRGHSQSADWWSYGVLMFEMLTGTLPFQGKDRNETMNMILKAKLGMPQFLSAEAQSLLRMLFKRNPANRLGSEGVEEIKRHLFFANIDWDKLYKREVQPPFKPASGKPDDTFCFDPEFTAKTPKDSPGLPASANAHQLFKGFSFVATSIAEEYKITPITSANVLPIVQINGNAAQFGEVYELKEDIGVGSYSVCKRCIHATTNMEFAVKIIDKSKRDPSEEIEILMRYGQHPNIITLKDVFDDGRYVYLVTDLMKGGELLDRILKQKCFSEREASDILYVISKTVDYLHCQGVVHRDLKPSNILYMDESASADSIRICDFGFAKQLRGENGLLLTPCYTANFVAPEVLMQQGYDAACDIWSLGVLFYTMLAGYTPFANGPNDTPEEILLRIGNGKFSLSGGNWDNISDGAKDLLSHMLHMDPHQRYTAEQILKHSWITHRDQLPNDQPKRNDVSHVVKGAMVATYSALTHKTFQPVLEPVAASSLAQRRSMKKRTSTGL
# [11] = target: Calcium/calmodulin-dependent protein kinase type 1G (Homo sapiens) (UniProt Q96NX5); conditions: Compound concentration 1000.0 nM
# [12] = target: Calcium/calmodulin-dependent protein kinase type 1B (Homo sapiens) (UniProt Q6P2M8); conditions: Compound concentration 1000.0 nM
# [13] = target: 5-hydroxytryptamine receptor 2A (Homo sapiens) (UniProt P28223); conditions: Compound concentration 10.0 uM
# Sequence of 5-hydroxytryptamine receptor 2A (Homo sapiens) (P28223 whole entry): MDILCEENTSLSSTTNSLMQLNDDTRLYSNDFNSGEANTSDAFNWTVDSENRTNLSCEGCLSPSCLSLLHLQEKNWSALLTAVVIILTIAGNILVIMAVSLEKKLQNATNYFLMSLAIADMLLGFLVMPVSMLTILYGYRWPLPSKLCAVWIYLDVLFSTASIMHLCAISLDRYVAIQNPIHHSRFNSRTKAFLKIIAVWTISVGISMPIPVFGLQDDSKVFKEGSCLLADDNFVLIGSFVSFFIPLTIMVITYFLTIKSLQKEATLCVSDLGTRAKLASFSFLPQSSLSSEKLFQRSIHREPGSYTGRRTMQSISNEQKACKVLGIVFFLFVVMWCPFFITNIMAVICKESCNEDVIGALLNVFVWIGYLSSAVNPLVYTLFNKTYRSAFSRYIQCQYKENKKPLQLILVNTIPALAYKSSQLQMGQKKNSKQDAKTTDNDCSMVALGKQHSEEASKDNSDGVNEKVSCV
# [14] = target: Ribosomal protein S6 kinase alpha-6 (Homo sapiens) (UniProt Q9UK32); conditions: Compound concentration 1000.0 nM; remark: listed apart in the source
# [15] = tested on: Phosphatidylinositol 4,5-bisphosphate 3-kinase catalytic subunit alpha isoform (Homo sapiens), P42336 [H1047L]; conditions: Compound concentration 1000.0 nM
# [16] = target: Tyrosine-protein kinase ABL2 (Homo sapiens) (UniProt P42684); conditions: Compound concentration 1000.0 nM
# [17] = target: Leukocyte tyrosine kinase receptor (Homo sapiens) (UniProt P29376); conditions: Compound concentration 1000.0 nM
# [18] = target: Tyrosine-protein kinase Fer (Homo sapiens) (UniProt P16591); conditions: Compound concentration 1000.0 nM
# [19] = target: Serine/threonine-protein kinase TNNI3K (Homo sapiens) (UniProt Q59H18); conditions: Compound concentration 1000.0 nM
# [20] = target: Serine/threonine-protein kinase pim-3 (Homo sapiens) (UniProt Q86V86); conditions: Compound concentration 1000.0 nM
# [21] = target: Death-associated protein kinase 3 (Homo sapiens) (UniProt O43293); conditions: Compound concentration 1000.0 nM
# [22] = target: Ribosomal protein S6 kinase alpha-2 (Homo sapiens) (UniProt Q15349); conditions: Compound concentration 1000.0 nM
# [23] = tested on: Tyrosine-protein kinase ABL1 (Homo sapiens), P00519 [H396P]; conditions: Compound concentration 1000.0 nM
# [24] = target: Vascular endothelial growth factor receptor 3 (Homo sapiens) (UniProt P35916); conditions: Compound concentration 1000.0 nM
# Sequence of Vascular endothelial growth factor receptor 3 (Homo sapiens) (P35916 whole entry): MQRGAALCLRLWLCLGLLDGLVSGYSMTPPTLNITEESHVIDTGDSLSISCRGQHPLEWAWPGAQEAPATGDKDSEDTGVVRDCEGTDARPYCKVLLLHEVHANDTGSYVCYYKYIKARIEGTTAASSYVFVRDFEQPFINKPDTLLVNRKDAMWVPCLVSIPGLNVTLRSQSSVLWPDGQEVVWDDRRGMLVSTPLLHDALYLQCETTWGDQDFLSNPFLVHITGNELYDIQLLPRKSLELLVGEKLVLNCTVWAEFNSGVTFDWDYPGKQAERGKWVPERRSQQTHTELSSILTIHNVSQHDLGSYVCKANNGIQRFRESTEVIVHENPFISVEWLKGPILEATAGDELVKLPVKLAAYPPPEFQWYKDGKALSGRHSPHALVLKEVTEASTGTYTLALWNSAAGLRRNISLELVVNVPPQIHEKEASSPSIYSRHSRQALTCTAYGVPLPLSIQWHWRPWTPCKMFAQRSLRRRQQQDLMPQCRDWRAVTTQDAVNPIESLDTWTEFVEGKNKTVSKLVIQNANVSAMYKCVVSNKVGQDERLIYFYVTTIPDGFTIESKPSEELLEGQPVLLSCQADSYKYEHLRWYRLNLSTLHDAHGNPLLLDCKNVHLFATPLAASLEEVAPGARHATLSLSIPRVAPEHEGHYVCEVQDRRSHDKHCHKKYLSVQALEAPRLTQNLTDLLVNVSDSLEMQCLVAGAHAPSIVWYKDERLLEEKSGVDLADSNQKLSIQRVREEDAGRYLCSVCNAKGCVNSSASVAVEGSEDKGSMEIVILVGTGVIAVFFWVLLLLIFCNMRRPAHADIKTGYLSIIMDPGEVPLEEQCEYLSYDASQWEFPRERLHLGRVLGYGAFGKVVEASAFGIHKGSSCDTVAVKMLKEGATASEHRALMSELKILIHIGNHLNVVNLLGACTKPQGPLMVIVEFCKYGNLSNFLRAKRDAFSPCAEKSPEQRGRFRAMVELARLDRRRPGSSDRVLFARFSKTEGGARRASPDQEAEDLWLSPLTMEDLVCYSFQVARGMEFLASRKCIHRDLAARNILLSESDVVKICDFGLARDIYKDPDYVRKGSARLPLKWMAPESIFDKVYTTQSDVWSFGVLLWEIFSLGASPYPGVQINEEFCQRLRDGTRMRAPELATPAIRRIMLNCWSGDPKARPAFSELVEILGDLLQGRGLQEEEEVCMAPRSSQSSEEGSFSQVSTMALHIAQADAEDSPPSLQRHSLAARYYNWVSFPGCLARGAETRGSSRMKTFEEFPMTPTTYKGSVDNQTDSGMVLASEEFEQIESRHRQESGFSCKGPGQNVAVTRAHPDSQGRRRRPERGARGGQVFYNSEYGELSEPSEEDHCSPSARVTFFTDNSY
# [25] = target: Mitogen-activated protein kinase kinase kinase 20 (Homo sapiens) (UniProt Q9NYL2); conditions: Compound concentration 1000.0 nM
# Sequence of Mitogen-activated protein kinase kinase kinase 20 (Homo sapiens) (Q9NYL2 2-800 limits assumed): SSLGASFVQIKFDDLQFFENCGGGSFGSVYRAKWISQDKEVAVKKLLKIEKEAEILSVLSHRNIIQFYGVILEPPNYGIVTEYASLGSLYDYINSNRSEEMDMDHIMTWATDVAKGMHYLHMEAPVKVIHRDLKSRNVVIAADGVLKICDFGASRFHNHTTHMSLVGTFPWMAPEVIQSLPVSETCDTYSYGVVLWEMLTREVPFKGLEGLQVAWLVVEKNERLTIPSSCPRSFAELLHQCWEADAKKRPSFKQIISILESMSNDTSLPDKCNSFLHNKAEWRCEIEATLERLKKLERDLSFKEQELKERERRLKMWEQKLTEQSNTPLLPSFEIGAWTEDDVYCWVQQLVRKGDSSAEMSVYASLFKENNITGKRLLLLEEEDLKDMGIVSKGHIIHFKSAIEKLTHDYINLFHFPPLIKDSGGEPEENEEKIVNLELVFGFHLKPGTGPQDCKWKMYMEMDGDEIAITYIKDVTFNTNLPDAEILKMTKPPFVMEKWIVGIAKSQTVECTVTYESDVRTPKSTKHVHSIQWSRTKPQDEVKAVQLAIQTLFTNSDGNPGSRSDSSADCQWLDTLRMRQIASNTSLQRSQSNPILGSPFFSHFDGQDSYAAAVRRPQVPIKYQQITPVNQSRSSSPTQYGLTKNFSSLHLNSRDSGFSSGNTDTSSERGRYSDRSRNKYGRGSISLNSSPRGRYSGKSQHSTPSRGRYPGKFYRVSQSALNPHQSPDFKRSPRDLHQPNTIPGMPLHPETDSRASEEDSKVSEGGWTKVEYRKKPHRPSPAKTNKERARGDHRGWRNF
# [26] = tested on: Tyrosine-protein kinase ABL1 (Homo sapiens), P00519 [T315I]; conditions: Compound concentration 1000.0 nM
# [27] = target: Serine/threonine-protein kinase D3 (Homo sapiens) (UniProt O94806); conditions: Compound concentration 1000.0 nM
# [28] = target: SRSF protein kinase 1 (Homo sapiens) (UniProt Q96SB4); conditions: Compound concentration 1000.0 nM
# [29] = target: RAC-alpha serine/threonine-protein kinase (Homo sapiens) (UniProt P31749); conditions: Compound concentration 1000.0 nM
# Sequence of RAC-alpha serine/threonine-protein kinase (Homo sapiens) (P31749 whole entry): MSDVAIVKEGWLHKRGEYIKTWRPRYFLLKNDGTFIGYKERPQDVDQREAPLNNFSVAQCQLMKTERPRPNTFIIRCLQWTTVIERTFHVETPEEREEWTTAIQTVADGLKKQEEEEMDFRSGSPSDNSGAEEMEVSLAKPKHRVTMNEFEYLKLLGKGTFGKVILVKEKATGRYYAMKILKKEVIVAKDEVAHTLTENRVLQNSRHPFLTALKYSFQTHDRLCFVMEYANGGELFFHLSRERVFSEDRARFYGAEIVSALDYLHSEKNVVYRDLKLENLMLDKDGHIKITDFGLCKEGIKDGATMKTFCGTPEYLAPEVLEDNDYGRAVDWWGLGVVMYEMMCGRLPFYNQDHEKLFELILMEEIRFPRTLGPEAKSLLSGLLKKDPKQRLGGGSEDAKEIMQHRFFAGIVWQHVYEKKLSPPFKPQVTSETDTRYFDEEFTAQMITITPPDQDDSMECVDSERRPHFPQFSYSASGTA
# [30] = target: Myosin light chain kinase (Homo sapiens) (UniProt Q32MK0); conditions: Compound concentration 1000.0 nM
# [31] = target: Dual specificity tyrosine-phosphorylation-regulated kinase 1B (Homo sapiens) (UniProt Q9Y463); conditions: Compound concentration 1000.0 nM
# Sequence of Dual specificity tyrosine-phosphorylation-regulated kinase 1B (Homo sapiens) (Q9Y463 whole entry, looked up, canonical isoform): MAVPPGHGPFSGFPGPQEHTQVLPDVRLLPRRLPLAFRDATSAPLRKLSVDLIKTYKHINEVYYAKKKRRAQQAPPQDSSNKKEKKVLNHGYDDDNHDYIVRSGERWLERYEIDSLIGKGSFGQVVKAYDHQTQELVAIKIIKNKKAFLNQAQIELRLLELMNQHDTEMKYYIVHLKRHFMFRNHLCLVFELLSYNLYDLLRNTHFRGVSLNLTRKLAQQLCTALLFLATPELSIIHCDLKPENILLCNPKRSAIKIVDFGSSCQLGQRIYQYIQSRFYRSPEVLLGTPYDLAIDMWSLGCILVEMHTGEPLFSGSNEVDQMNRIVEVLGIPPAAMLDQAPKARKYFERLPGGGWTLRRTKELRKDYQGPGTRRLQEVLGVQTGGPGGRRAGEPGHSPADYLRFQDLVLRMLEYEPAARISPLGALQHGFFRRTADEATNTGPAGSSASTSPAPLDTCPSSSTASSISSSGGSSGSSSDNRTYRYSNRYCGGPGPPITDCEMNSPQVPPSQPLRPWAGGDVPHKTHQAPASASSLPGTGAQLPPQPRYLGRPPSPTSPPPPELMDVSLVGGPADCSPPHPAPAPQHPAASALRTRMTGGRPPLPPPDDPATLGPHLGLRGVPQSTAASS
# [32] = target: Casein kinase I isoform delta (Homo sapiens) (UniProt P48730); conditions: Compound concentration 1000.0 nM
# [33] = target: Serine/threonine-protein kinase N1 (Homo sapiens) (UniProt Q16512); conditions: Compound concentration 1000.0 nM
# [34] = target: Protein kinase C eta type (Homo sapiens) (UniProt P24723); conditions: Compound concentration 1000.0 nM
# [35] = target: Casein kinase I isoform epsilon (Homo sapiens) (UniProt P49674); conditions: Compound concentration 1000.0 nM
# [36] = target: G protein-coupled receptor kinase 4 (Homo sapiens) (UniProt P32298); conditions: Compound concentration 1000.0 nM
# [37] = target: Tyrosine-protein kinase Srms (Homo sapiens) (UniProt Q9H3Y6); conditions: Compound concentration 1000.0 nM
# [38] = tested on: Proto-oncogene tyrosine-protein kinase receptor Ret (Homo sapiens), P07949 [V804L]; conditions: Compound concentration 1000.0 nM
# [39] = target: Serine/threonine-protein kinase PAK 5 (Homo sapiens) (UniProt Q9P286); conditions: Compound concentration 1000.0 nM
# [40] = target: Histamine H2 receptor (Homo sapiens) (UniProt P25021); conditions: Compound concentration 10.0 uM
# [41] = target: Ribosomal protein S6 kinase alpha-1 (Homo sapiens) (UniProt Q15418); conditions: Compound concentration 1000.0 nM
# [42] = target: Ephrin type-A receptor 5 (Homo sapiens) (UniProt P54756); conditions: Compound concentration 1000.0 nM
# [43] = tested on: Epidermal growth factor receptor (Homo sapiens), P00533 [UNDEFINED MUTATION]; conditions: Compound concentration 1000.0 nM
# [44] = target: Homeodomain-interacting protein kinase 4 (Homo sapiens) (UniProt Q8NE63); conditions: Compound concentration 1000.0 nM
# [45] = target: Phosphorylase b kinase regulatory subunit alpha, liver isoform (Homo sapiens) (UniProt P46019); conditions: Compound concentration 1000.0 nM
compound,measurement,setting,value
NS(=O)(=O)c1cc(NC(=O)Cc2ccccc2)ccc1Oc1cccc(Cl)c1 [BAY-1797],residual activity,[1],93%
same,residual activity,[2],87%
same,residual activity,[3],83%
same,residual activity,[4],100%
same,residual activity,[5],100%
same,Ki,[6]; read-out: Ki,4.34 µM
same,Ki,[6]; read-out: pKi (converted),4.17 µM
same,residual activity,[7],100%
same,residual activity,[8],93%
same,residual activity,[9],80%
same,residual activity,[10],84%
same,residual activity,[11],84%
same,residual activity,[12],83%
same,inhibition,[13],-2.5%
same,residual activity,[14],59%
same,residual activity,[15],96%
same,residual activity,[16],87%
same,residual activity,[17],87%
same,residual activity,[18],73%
same,residual activity,[19],91%
same,residual activity,[20],96%
same,residual activity,[21],95%
same,residual activity,[22],100%
same,residual activity,[23],73%
same,residual activity,[24],79%
same,residual activity,[25],100%
same,residual activity,[26],88%
same,residual activity,[27],100%
same,residual activity,[28],62%
same,residual activity,[29],100%
same,residual activity,[30],89%
same,residual activity,[31],100%
same,residual activity,[32],93%
same,residual activity,[33],100%
same,residual activity,[34],93%
same,residual activity,[35],100%
same,residual activity,[36],100%
same,residual activity,[37],78%
same,residual activity,[38],80%
same,residual activity,[39],63%
same,inhibition,[40],-4.85%
same,residual activity,[41],75%
same,residual activity,[42],62%
same,residual activity,[43],58%
same,residual activity,[44],100%
same,residual activity,[45],100%
NS(=O)(=O)c1cc(NC(=O)C2(c3ccccc3Cl)CC2)ccc1Oc1cccc(Cl)c1 [BAY-207],residual activity,[1],100%
same,residual activity,[2],100%
same,residual activity,[3],100%
same,residual activity,[4],90%
same,residual activity,[5],100%
same,Ki,[6]; read-out: Ki,1.94 µM
same,residual activity,[7],91%
same,residual activity,[8],78%
same,residual activity,[9],100%
same,residual activity,[10],100%
same,residual activity,[11],100%
same,residual activity,[12],100%
same,inhibition,[13],11.3%
same,residual activity,[14],96%
same,residual activity,[15],98%
same,residual activity,[16],80%
same,residual activity,[17],73%
same,residual activity,[18],83%
same,residual activity,[19],72%
same,residual activity,[20],88%
same,residual activity,[21],100%
same,residual activity,[22],91%
same,residual activity,[23],93%
same,residual activity,[24],67%
same,residual activity,[25],99%
same,residual activity,[26],75%
same,residual activity,[27],85%
same,residual activity,[28],71%
same,residual activity,[29],78%
same,residual activity,[30],89%
same,residual activity,[31],86%
same,residual activity,[32],83%
same,residual activity,[33],100%
same,residual activity,[34],100%
same,residual activity,[35],64%
same,residual activity,[36],100%
same,residual activity,[37],77%
same,residual activity,[38],70%
same,residual activity,[39],100%
same,inhibition,[40],11.5%
same,residual activity,[41],100%
same,residual activity,[42],79%
same,residual activity,[43],46%
same,residual activity,[44],58%
same,residual activity,[45],100%
